The values that follow come from patent US11426397B2, “Piperidinyl- and piperazinyl-substituted heteroaromatic carboxamides as modulators of GPR6” (TAKEDA PHARMACEUTICAL COMPANY LIMITED, priority 2017, dated 2022).

In the assay the target is T1, GPR6 receptor expressed in CHO-K1 cells (Homo sapiens, UniProt P46095).
T1 construct: expressed in transfected cells
T1 sequence (P46095 whole entry): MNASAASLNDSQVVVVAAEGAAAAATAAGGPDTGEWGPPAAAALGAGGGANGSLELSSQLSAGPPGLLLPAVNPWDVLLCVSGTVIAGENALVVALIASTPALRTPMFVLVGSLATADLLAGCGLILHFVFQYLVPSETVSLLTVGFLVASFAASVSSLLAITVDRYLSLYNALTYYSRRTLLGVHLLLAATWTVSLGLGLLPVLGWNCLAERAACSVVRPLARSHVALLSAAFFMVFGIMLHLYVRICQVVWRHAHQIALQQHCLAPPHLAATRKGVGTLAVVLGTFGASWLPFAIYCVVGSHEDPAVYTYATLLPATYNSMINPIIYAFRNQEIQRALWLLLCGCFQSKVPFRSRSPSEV
The assay can be described thus: In vitro inhibition of cAMP (EC50), cell-based HTRF cAMP assay. The following applies: inhibition of constitutive cAMP activity of GPR6 in CHO-K1 cells. The method in brief: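 Tetracycline-inducible CHO-K1 line, GPR6 expression induced 20 h with 2 μg/mL doxycycline. Compounds incubated 45 min at 37 °C in Ringer's buffer (pH 7.4) with 0.5% fatty acid free BSA and 300 μM IBMX. Constitutive cAMP read by Lance HTRF; EC50 from four-parameter logistic fit.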
In general terms: Time-resolved FRET reads energy transfer from a long-lived donor to a nearby acceptor.
On to `COc1nc(C)cc(C)c1C(=O)Nc1cc(C#N)ccc1N1CCC(Oc2ccc(F)cc2F)CC1` [Example 80, N-(5-cyano-2-(4-(2,4-difluorophenoxy)piperidin-1-yl)phenyl)-2-methoxy-4,6-dimethylnicotinamide], for which the “pEC50, in vitro inhibition of cAMP” value is 6.3. For `COc1ccc(C(=O)C2CCN(c3ccc(C#N)cc3NC(=O)c3cccn(C)c3=O)CC2)c(F)c1` [Example 81, N-(5-cyano-2-(4-(2-fluoro-4-methoxybenzoyl)piperidin-1-yl)phenyl)-1-methyl-2-oxo-1,2-dihydropyridine-3-carboxamide], the “pEC50, in vitro inhibition of cAMP” value came to 6.9. Turning to `Cn1cccc(C(=O)Nc2cc(C#N)ccc2N2CCC(C(=O)c3cc(F)ccc3F)CC2)c1=O` [Example 82, N-(5-cyano-2-(4-(2,5-difluorobenzoyl)piperidin-1-yl)phenyl)-1-methyl-2-oxo-1,2-dihydropyridine-3-carboxamide], the “pEC50, in vitro inhibition of cAMP” value came out at 7.0. The value for `Cn1cccc(C(=O)Nc2cc(C#N)ccc2N2CCC(C(=O)c3cc(Cl)ccc3F)CC2)c1=O` [Example 83] was 6.9. Take `Cn1cccc(C(=O)Nc2cc(C#N)ccc2N2CCC([C@H](F)c3ccc(F)cc3F)CC2)c1=O` [Example 84, (S)—N-(5-cyano-2-(4-((2,4-difluorophenyl)fluoromethyl)piperidin-1-yl)phenyl)-1-methyl-2-oxo-1,2-dihydropyridine-3-carboxamide]: the “pEC50, in vitro inhibition of cAMP” value amounted to 6.6.

On to `Cn1cccc(C(=O)Nc2cc(C#N)ccc2N2CCC([C@@H](F)c3ccc(F)cc3F)CC2)c1=O` [Example 85, (R)—N-(5-cyano-2-(4-((2,4-difluorophenyl)fluoromethyl)piperidin-1-yl)phenyl)-1-methyl-2-oxo-1,2-dihydropyridine-3-carboxamide], for which the “pEC50, in vitro inhibition of cAMP” value is 7.2. The value for `Cn1cccc(C(=O)Nc2cc(C#N)ccc2N2CCC(C(F)(F)c3ccc(F)cc3F)CC2)c1=O` [Example 86, N-(5-cyano-2-(4-((2,4-difluorophenyl)difluoromethyl)piperidin-1-yl)phenyl)-1-methyl-2-oxo-1,2-dihydropyridine-3-carboxamide] was 6.8. The value for `Cn1cccc(C(=O)Nc2cc(C#N)ccc2N2CCC(C(F)c3cc(F)ccc3F)CC2)c1=O` (stereo not shown) [Example 87] was 7.2; that for `Cn1cccc(C(=O)Nc2cc(C#N)ccc2N2CCC(C(F)(F)c3cc(F)ccc3F)CC2)c1=O` [Example 88, N-(5-cyano-2-(4-((2,5-difluorophenyl)difluoromethyl)piperidin-1-yl)phenyl)-1-methyl-2-oxo-1,2-dihydropyridine-3-carboxamide] was 6.4; that for `Cn1cccc(C(=O)Nc2cc(C#N)ccc2N2CCC(C(F)(F)c3cc(Cl)ccc3F)CC2)c1=O` [Example 89, N-(2-(4-((5-chloro-2-fluorophenyl)difluoromethyl)piperidin-1-yl)-5-cyanophenyl)-1-methyl-2-oxo-1,2-dihydropyridine-3-carboxamide] was 6.3.

As for `COc1ccc(CC2CCN(c3ccc(C#N)cc3NC(=O)c3cccn(C)c3=O)CC2)c(F)c1` [Example 90, N-(5-cyano-2-(4-(2-fluoro-4-methoxybenzyl)piperidin-1-yl)phenyl)-1-methyl-2-oxo-1,2-dihydropyridine-3-carboxamide], the “pEC50, in vitro inhibition of cAMP” value is 7.2. Regarding `COc1ncccc1C(=O)Nc1cc(C#N)ccc1N1CCN(Cc2ccc(F)cc2)CC1` [Example 91, N-(5-cyano-2-(4-(4-fluorobenzyl)piperazin-1-yl)phenyl)-2-methoxynicotinamide], the “pEC50, in vitro inhibition of cAMP” value turned out to be 7.1. As to `COc1ccncc1C(=O)Nc1ccc(C#N)cc1N1CCC(Oc2ccc(F)cc2F)CC1` [Example 92, N-(4-cyano-2-(4-(2,4-difluorophenoxy)piperidin-1-yl)phenyl)-4-methoxynicotinamide], the “pEC50, in vitro inhibition of cAMP” value is recorded as 7.3.

As to `COc1ncccc1C(=O)Nc1cc(C#N)ccc1N1CCN(C(=O)c2ccc(F)cc2F)CC1` [Example 93, N-(5-cyano-2-(4-(2,4-difluorobenzoyl)piperazin-1-yl)phenyl)-2-methoxynicotinamide], the “pEC50, in vitro inhibition of cAMP” value is listed as 6.3. The value for `COc1nccnc1C(=O)Nc1cc(C#N)ccc1N1CCC(Oc2ccc(F)cc2F)CC1` [Example 94, N-(5-cyano-2-(4-(2,4-difluorophenoxy)piperidin-1-yl)phenyl)-3-methoxypyrazine-2-carboxamide] was below 5.7; that for `COc1ncccc1C(=O)Nc1cc(S(C)(=O)=O)ccc1N1CCN(C(=O)c2ccc(F)cc2C)CC1` [Example 95, N-(2-(4-(4-fluoro-2-methylbenzoyl)piperazin-1-yl)-5-(methylsulfonyl)phenyl)-2-methoxynicotinamide] was 6.2; that for `COc1ncccc1C(=O)Nc1cc(C#N)ccc1N1CCC(C(OC)c2ccc(F)cc2)CC1` (stereo not shown) [Example 96, N-(5-cyano-2-(4-((4-fluorophenyl)(methoxy)methyl)piperidin-1-yl)phenyl)-2-methoxynicotinamide] was 6.5. Regarding `COc1nn(C)cc1C(=O)Nc1cc(C#N)ccc1N1CCC(S(=O)(=O)c2cccc(F)c2)CC1` [Example 97, N-(5-cyano-2-(4-((3-fluorphenyl)sulfonyl)piperidin-1-yl)phenyl)-3-methoxy-1-methyl-1H-pyrazole-4-carboxamide], the “pEC50, in vitro inhibition of cAMP” value was determined as 6.4. Consider `COc1cccc(S(=O)(=O)C2CCN(c3ccc(C#N)cc3NC(=O)c3cn(C)nc3OC)CC2)c1` [Example 98, N-(5-cyano-2-(4-((3-methoxyphenyl)sulfonyl)piperidin-1-yl)phenyl)-3-methoxy-1-methyl-1H-pyrazole-4-carboxamide], for which the “pEC50, in vitro inhibition of cAMP” value is reported as 6.4. Take `COc1nn(C)cc1C(=O)Nc1cnc(C)cc1N1CCC(S(=O)(=O)c2ccc(F)cc2F)CC1` [Example 99, N-(4-(4-((2,4-difluorophenyl)sulfonyl)piperidin-1-yl)-6-methylpyridin-3-yl)-3-methoxy-1-methyl-1H-pyrazole-4-carboxamide]: the “pEC50, in vitro inhibition of cAMP” value came out at 6.1. The value for `COc1ncc(F)cc1C(=O)Nc1ccc(C)nc1N1CCN(Cc2ccc(F)cc2)CC1` [Example 100, 5-fluoro-N-(2-(4-(4-fluorobenzyl)piperazin-1-yl)-6-methylpyridin-3-yl)-2-methoxynicotinamide] was 6.8. In the case of `Cc1ccc(NC(=O)c2cc(F)cnc2O)c(N2CCN(Cc3ccc(F)cc3)CC2)n1` [Example 101, 5-fluoro-N-(2-(4-(4-fluorobenzyl)piperazin-1-yl)-6-methylpyridin-3-yl)-2-hydroxynicotinamide], the “pEC50, in vitro inhibition of cAMP” value was found to be 5.9. The value for `COc1nn(C)cc1C(=O)Nc1cc(C)cnc1N1CCN(Cc2ccc(C#N)c(F)c2)CC1` [Example 102, N-(2-(4-(4-cyano-3-fluorobenzyl)piperazin-1-yl)-5-methylpyridin-3-yl)-3-methoxy-1-methyl-1H-pyrazole-4-carboxamide] was 6.1. Regarding `COc1c(C(=O)Nc2ccc(C)nc2N2CCN(Cc3ccc(F)cc3)CC2)cnn1C` [Example 103, N-(2-(4-(4-fluorobenzyl)piperazin-1-yl)-6-methylpyridin-3-yl)-5-methoxy-1-methyl-1H-pyrazole-4-carboxamide], the “pEC50, in vitro inhibition of cAMP” value was determined as 6.5. As for `Cc1ccc(NC(=O)c2cnn(C)c2O)c(N2CCN(Cc3ccc(F)cc3)CC2)n1` [Example 104], the “pEC50, in vitro inhibition of cAMP” value is listed as below 5.7.

In the case of `Cc1nc(C(=O)Nc2cc(C#N)ccc2N2CCC(Oc3ccc(F)cc3F)CC2)cs1` [Example 105], the “pEC50, in vitro inhibition of cAMP” value is 7.0.

Turning to `N#Cc1ccc(N2CCC(Oc3ccc(F)cc3F)CC2)c(NC(=O)c2ccc(F)cn2)c1` [Example 106, N-(5-cyano-2-(4-(2,4-difluorophenoxy)piperidin-1-yl)phenyl)-5-fluoropicolinamide], the “pEC50, in vitro inhibition of cAMP” value amounted to 6.5.

Consider `N#Cc1ccc(N2CCC(Oc3ccc(F)cc3F)CC2)c(NC(=O)c2cc3n(n2)CCC3)c1` [Example 107, N-(5-cyano-2-(4-(2,4-difluorophenoxy)piperidin-1-yl)phenyl)-5,6-dihydro-4H-pyrrolo[1,2-b]pyrazole-2-carboxamide], for which the “pEC50, in vitro inhibition of cAMP” value worked out at 6.6. As to `N#Cc1ccc(N2CCC(Oc3ccc(F)cc3F)CC2)c(NC(=O)c2ncccc2F)c1` [Example 108, N-(5-cyano-2-(4-(2,4-difluorophenoxy)piperidin-1-yl)phenyl)-3-fluoropicolinamide], the “pEC50, in vitro inhibition of cAMP” value was determined as 7.0. Regarding `COc1ccnc(C(=O)Nc2cc(C#N)ccc2N2CCC(Oc3ccc(F)cc3F)CC2)c1` [Example 109, N-(5-cyano-2-(4-(2,4-difluorophenoxy)piperidin-1-yl)phenyl)-4-methoxypicolinamide], the “pEC50, in vitro inhibition of cAMP” value is 6.7. The value for `Cc1nc(C(=O)Nc2cc(C#N)ccc2N2CCC(Oc3ccc(F)cc3F)CC2)c(C)o1` [Example 110, N-(5-cyano-2-(4-(2,4-difluorophenoxy)piperidin-1-yl)phenyl)-2,5-dimethyloxazole-4-carboxamide] was 6.3; that for `N#Cc1ccc(N2CCC(Oc3ccc(F)cc3F)CC2)c(NC(=O)c2ncoc2C2CC2)c1` [Example 111] was 5.5. `N#Cc1ccc(N2CCC(Oc3ccc(F)cc3F)CC2)c(NC(=O)c2cscn2)c1` [Example 112, N-(5-cyano-2-(4-(2,4-difluorophenoxy)piperidin-1-yl)phenyl)thiazole-4-carboxamide]: the “pEC50, in vitro inhibition of cAMP” value is 6.4. The value for `Cc1cc(C(=O)Nc2cc(C#N)ccc2N2CCC(Oc3ccc(F)cc3F)CC2)nn1C` [Example 113, N-(5-cyano-2-(4-(2,4-difluorophenoxy)piperidin-1-yl)phenyl)-1,5-dimethyl-1H-pyrazole-3-carboxamide] was 6.9.
